Laboratory results as given in US12458021B2, “Microbiocidal derivatives” (SYNGENTA CROP PROTECTION AG, priority 2019, dated 2025).

Tests used:
[1] = tested on: Puccinia recondita f. sp. tritici; assay: Puccinia recondita f. sp. tritici / wheat / leaf disc preventative (brown rust); format: in vivo; conditions: foliar, wheat leaf segments cv. Kanzler, inoculated 1 day after application, assessed 7-9 days after application, read-out: control of Puccinia recondita f. sp. tritici, preventative (percent disease control compared to untreated)
Protocol: Example B11: Puccinia recondita f. sp. tritici/Wheat/Leaf Disc Preventative (Brown Rust) Wheat leaf segments cv. Kanzler are placed on agar in multiwell plates (24-well format) and sprayed with the formulated test compound diluted in water. The leaf disks are inoculated with a spore suspension of the fungus 1 day after application. The inoculated leaf segments are incubated at 19° C. and 75% rh under a light regime of 12 h light/12 h darkness in a climate cabinet and the activity of a compound is assessed as percent disease control compared to untreated when an appropriate level of disease damage appears in untreated check leaf segments (7-9 days after application). […] […]-190.

[2] = tested on: Blumeria graminis f. sp. tritici (Erysiphe graminis f. sp. tritici); assay: Blumeria graminis f. sp. tritici / wheat / leaf disc preventative (powdery mildew on wheat); format: in vivo; conditions: foliar, wheat leaf segments cv. Kanzler, inoculated 1 day after application, assessed 6-8 days after application, read-out: control of Blumeria graminis f. sp. tritici (percent disease control compared to untreated)
Source text: Example B4: Blumeria graminis f. sp. tritici (Erysiphe graminis f. sp. tritici)/Wheat/Leaf Disc Preventative (Powdery Mildew on Wheat) Wheat leaf segments cv. Kanzler are placed on agar in a multiwell plate (24-well format) and sprayed with the formulated test compound diluted in water. The leaf disks are inoculated by shaking powdery mildew infected plants above the test plates 1 day after application. […] […]-192.

[3] = tested on: Magnaporthe grisea (Pyricularia oryzae); assay: whole plant or invertebrate; format: in vivo; conditions: foliar, read-out: control of Magnaporthe grisea (percent disease control compared to untreated)
[4] = tested on: Glomerella lagenarium (Colletotrichum lagenarium); assay: Glomerella lagenarium (Colletotrichum lagenarium) / liquid culture (anthracnose); format: cell-based; conditions: Colletotrichum orbiculare, PDB potato dextrose broth, 24° C., 3-4 days after application, read-out: control of Glomerella lagenarium (inhibition of growth, photometric)
Summary of the method: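 Fungal growth inhibition measured photometrically 3-4 days post-application at 24° C. Spores were mixed directly into potato dextrose broth and dispensed onto test compound supplied in DMSO.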

[5] = tested on: Mycosphaerella graminicola (Septoria tritici); assay: Mycosphaerella graminicola (Septoria tritici) / liquid culture (Septoria blotch); format: cell-based; conditions: Zymoseptoria tritici, PDB potato dextrose broth, 24° C., 4-5 days after application, read-out: control of Mycosphaerella graminicola (inhibition of growth, photometric)
Summary of the method: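 Fungal growth inhibition was read photometrically 4-5 days after application. Compound was dosed from a DMSO solution into liquid cultures of spores in potato dextrose broth, incubated at 24° C.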

[6] = tested on: Monographella nivalis (Microdochium nivale); assay: Monographella nivalis (Microdochium nivale) / liquid culture (foot rot cereals); format: cell-based; conditions: PDB potato dextrose broth, 24° C., 4-5 days after application, read-out: control of Monographella nivalis (inhibition of growth, photometric)
Summary of the method: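 Growth inhibition measured by photometry 4-5 days post-application at 24° C. Compound was dispensed as DMSO solution, then PDB broth containing conidia from cryogenic storage was added.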

COc1ccc(Nc2cncc(F)c2)nc1C(=O)NCC(C)(C)C [Compound P-105, N-(2,2-dimethylpropyl)-6-[(5-fluoro-3-pyridyl)amino]-3-methoxy-pyridine-2-carboxamide]
≥ 80%: pest or weed control at 200 ppm [1] | pest or weed control at 200 ppm [2] | pest or weed control at 200 ppm [3]

COc1ccc(N(C#N)c2cc(F)nc(F)c2)nc1C(=O)NC1CCC1(C)C (stereo not drawn) [Compound P-21, 6-[cyano-(2,6-difluoro-4-pyridyl)amino]-N-(2,2-dimethylcyclobutyl)-3-methoxy-pyridine-2-carboxamide]
≥ 80%: pest or weed control at 200 ppm [1] | pest or weed control at 200 ppm [2] | pest or weed control at 200 ppm [3]

COc1ccc(Nc2cc(F)nc(F)c2)nc1C(=O)NCC(C)(C)C [Compound P-30, 6-[(2,6-difluoro-4-pyridyl)amino]-N-(2,2-dimethylpropyl)-3-methoxy-pyridine-2-carboxamide]
≥ 80%: pest or weed control at 200 ppm [1] | inhibition at 20 ppm [4] | pest or weed control at 200 ppm [2] | inhibition at 20 ppm [5] | pest or weed control at 200 ppm [3]

COc1ccc(Nc2cc(F)cc(F)c2)[n+]([O-])c1C(=O)NC(C)(C)C [Compound P-117, N-tert-butyl-6-(3,5-difluoroanilino)-3-methoxy-1-oxido-pyridin-1-ium-2-carboxamide]
≥ 80%: pest or weed control at 200 ppm [1] | inhibition at 20 ppm [4] | pest or weed control at 200 ppm [2] | inhibition at 20 ppm [6] | inhibition at 20 ppm [5] | pest or weed control at 200 ppm [3]

CC(C)(C)NC(=O)c1cccc(Nc2cc(F)nc(F)c2)n1 [Compound P-114, N-tert-butyl-6-[(2,6-difluoro-4-pyridyl)amino]pyridine-2-carboxamide]
≥ 80%: pest or weed control at 200 ppm [1] | inhibition at 20 ppm [4] | pest or weed control at 200 ppm [2] | inhibition at 20 ppm [6] | inhibition at 20 ppm [5]

COc1ccc(Nc2cc(F)nc(F)c2)nc1C(=O)NC1CCc2cc(C(F)(F)F)ccc21 (stereo not drawn) [Compound P-47, 6-[(2,6-difluoro-4-pyridyl)amino]-3-methoxy-N-[5-(trifluoromethyl)indan-1-yl]pyridine-2-carboxamide]
≥ 80%: pest or weed control at 200 ppm [1] | inhibition at 20 ppm [4] | inhibition at 20 ppm [6] | inhibition at 20 ppm [5] | pest or weed control at 200 ppm [3]

COc1ccc(Nc2cc(F)cc(F)c2)nc1C(=O)NC1(c2cccc(Cl)n2)CCC1 [Compound P-177, N-[1-(6-chloro-2-pyridyl)cyclobutyl]-6-(3,5-difluoroanilino)-3-methoxy-pyridine-2-carboxamide]
≥ 80%: pest or weed control at 200 ppm [1] | inhibition at 20 ppm [4] | pest or weed control at 200 ppm [2] | inhibition at 20 ppm [6] | inhibition at 20 ppm [5] | pest or weed control at 200 ppm [3]

COc1ccc(Nc2cc(F)nc(F)c2)nc1C(=O)NC1(C2CCCCC2)CC1 [Compound P-88, N-(1-cyclohexylcyclopropyl)-6-[(2,6-difluoro-4-pyridyl)amino]-3-methoxy-pyridine-2-carboxamide]
≥ 80%: pest or weed control at 200 ppm [1] | inhibition at 20 ppm [4] | pest or weed control at 200 ppm [3]
